# Reference: patent US10682371B2, “Small molecule conjugates specifically activated in tumor microenvironment for targeting and use thereof” (priority 2014, dated 2020)
# Like-named read-outs stand apart in the source and are kept apart here.
# Key:
# [1] = system: Human prostate cancer PC-3 cells / Panc-1 cells; assay: Tumor treatment in nude mice (PC-3 cells purchased, Panc-1 cells injected; Examples 22, 32, 42); type: in vivo; conditions: nude mice, IV once weekly for four weeks, Paclitaxel 8 mg/kg
# Method: (§1) 1) Human prostate cancer PC-3 cells were purchased from American type culture collection (ATCC) and identified according the specification provided by ATCC. Cells were cultivated in DMEM culture solution containing 10% fetal bovine serum at 37° C. and 5% CO2. The cells were passaged for every three days and cells within the 15th passage were used.
# 2) Production of tumor. 5×10^6Panc-1 cells were subcutaneously injected to the back of the nude mice. Mice were randomly grouped after the tumor reached at least 100 mm^3. Then treatment began and the day on which the treatment began was day 1.
# The control group was administered by physiological saline. Drugs were administered once weekly for four weeks.
# According to the clinical application of B1, B2, B3 and B4, drugs were intravenously injected (IV). […] The control group was administered by physiological saline. Drugs were administered once weekly for four weeks.
# [2] = system: tumor-derived immunosuppressive T cells (T reg: CD4+, CD25+, Foxp3+); CD8 T cells; assay: Immunological stimulation test in mice receiving tumor treatment (T reg, CD8 T cells); type: in vivo; conditions: mice receiving tumor treatment
# Excerpt: We further studied the immunological stimulation property of Legutaxel. […] On the contrary, the index for tumor-derived immunosuppressive T cells in treatment group by Legutaxel decreased due to targeted chemotherapy (see panels in FIGS. 3A and 3B).
# [3] = system: D121 lung tumor cells; type: in vivo, C57 mice; conditions: drugs weekly for 4 weeks
# Method: 1) D121 lung tumor cells were purchased from ATCC. Cells were cultivated in DMEM culture solution containing 10% fetal bovine serum at 37° C. and 5% CO2. The cells were passaged for every three days and cells within the 15th passage were used.
# (§2) 2) Tumor immunization. 5×10^5 D121 lung cancer cells (purchased from ATCC) which were killed by irradiation were intraperitoneally injected to mice. The mice were injected for 3 times, once every two weeks. After immunization, mice were injected with tumor cells and the drugs were administered weekly for 4 weeks.
# 3) Production of tumor. At day 32, 10^6 live lung tumor cells were subcutaneously injected to the back of the C57 mice immunized by tumor. Treatment began when the tumor grew to 0.3-0.4 cm.
# as §2, with “4 weeks. In table 16 below the immune group was immuned with D121 lung tumor cells and the group without dead D121 lung tumor cells was injected with physiological saline as controls.” for “4 weeks.”
# 3) Production of tumor. After immunization (4 weeks later), 10^6 live lung tumor cells were subcutaneously injected to the back of the C57 mice immunized by tumor. Treatment began when the tumor grew to 0.3-0.4 cm. Tumor size (mm^3) were noted and tumor inhibition rates were calculated.
# as §2, with “4 weeks. In the table below the immune group was immuned with D121 lung tumor cells and the group without dead D121 lung tumor cells was injected with physiological saline as controls.” for “4 weeks.”
# 3) Production of tumor. At day 32, 10^6 live D121 lung tumor cells were subcutaneously injected to the back of the C57 mice immunized by tumor. Treatment began when the tumor grew to 0.3-0.4 cm.
# 1) D121 lung tumor cells were purposed from ATCC. Cells were cultivated in DMEM culture solution containing 10% fetal bovine serum at 37° C. and 5% CO2. The cells were passaged for every three days and cells within the 15th passage were used.
# [4] = system: tumor CD8+ T cells; type: in vivo, C57 mice; conditions: CD8 positive cells in CD45 positive cells of tumor
# Method: (§3) 4) Analysis on tumor CD8+ T cells. The tumor tissue was homogenated and individual cells in the tumor were filtered, separated and washed by buffer twice, then cultivated with the leucocyte common antigen CD45-PE and CD8-FITC marked antibodies for 1 hour at ambient temperature. The cells were washed by phosphate buffer containing 1% fetal bovine serum twice and then analyzed for the ratio of the T lymphocyte antigen (CD8) positive cells in the leucocyte common antigen (CD45) positive cells by flow cytometry.
# as §3, with “CD45-PE and T-lymphocyte antigen CD8-FITC marked” for “CD45-PE and CD8-FITC marked”, “flow cytometry. Increasement of the ratio indicates increased T lymphocyte cells and thus the animal immunity against the tumor was improved.” for “flow cytometry.”
# as §3, with “cytometry. Increasement of the ratio indicates increased T lymphocyte cells and thus the animal immunity against the tumor was improved.” for “cytometry.”
# [5] = system: 4T1 cells; assay: BALB/C mice model for tumor metastasis (4T1, lung metastases); type: in vivo; conditions: IV every three days for 4 times, Paclitaxel 4 mg/kg
# Method: as §1, with “4T1” for “Human prostate cancer PC-3”
# 2) Production of tumor metastasis. 10^6 […] were subcutaneously injected to the back of the BALB/C mice. Mice were randomly grouped after the tumor grew to about 1.5 cm. The subcutaneous tumor was removed by surgery and drug treatment began. Mice were killed after anesthesia on day 27. The whole lung was taken out and put into Bouin's solution for staining. The number of the tumor metastasized to lung was counted with anatomical microscope.
# (§4) The control group was administered by physiological saline. Drugs were administered once for every three days for 4 times.
# as §4
# According to the clinical application of B1, B2, B3 and B4, drugs were intravenously injected (IV). […] The control group was administered by physiological saline. Drugs were administered once for every three days for 4 times.
# According to the clinical application of D1, D2, D3 and D4, drugs were intravenously injected (IV). […] The control group was administered by physiological saline. Drugs were administered once for every three days for 4 times.
# [6] = Table 26, A1-A4 24 mg/kg, Day 10
# [7] = D121 immunized C57 mice, Day 18 (Example 23)
# [8] = 4T1, BALB/C mice, lung, day 27, S1′-S4′ 12 mg/kg
# [9] = Table 28, BALB/C mice, 4T1, lung metastases day 27, A1-A4 12 mg/kg
substance,measurement,setting,value
Paclitaxel [reference compound],Size of tumor (mm^3) Day 10,[1]; [6],123.04 ± 125.3 mm^3
same,inhibitory rate on tumor Day 10,[1]; [6],58.3%
same,Size of tumor (mm^3) Day 24,"[1]; Table 26, A1-A4 24 mg/kg",252.49 ± 248.5 mm^3
same,inhibitory rate on tumor Day 24,"[1]; Table 26, A1-A4 24 mg/kg",33.7%
same,inhibitory rate on tumor Day 10,"[1]; S1′-S4′ 24 mg/kg, Day 10",7.5%
same,Size of tumor (mm^3) Day 24,[1]; S1′-S4′ 24 mg/kg,249.54 ± 95.46 mm^3
same,inhibitory rate on tumor Day 24,[1]; S1′-S4′ 24 mg/kg,27.9%
same,"Index for tumor-derived immunosuppressive T cells (T reg: CD4+, CD25+, Foxp3+)",[2],greatly increased
same,Size of tumor (mm^3) Day 18,[3]; [7],1210.28 ± 375.46 mm^3
same,inhibitory rate on tumor % Day 18,[3]; [7],23.1%
same,inhibitory rate on tumor % Day 18,"[3]; Table 27, immunized C57 mice, D121 lung tumor, Day 18",20.47%
same,CD8: CD45 (%),[4]; D121 immunized C57 mice (Example 23),6.6%
same,CD8: CD45 (%),"[4]; Table 27, flow cytometry, immunized C57 mice, D121",5.7%
same,Inhibitory rate on metastasis,[5]; [8],5.9%
same,Number of metastasized tumor,[5]; [8],128 ± 25
same,Inhibitory rate on metastasis,[5]; [9],6.8%
same,Number of metastasized tumor,[5]; [9],137 ± 32
